Data from patent EP1688137A1, “SPM 927 for add-on therapy of schizophrenia” (SCHWARZ PHARMA AG, priority 2005, dated 2006).

Tested on: C57BL/6J mice
Experiment: prepulse inhibition (PPI) of the acoustic startle reflex, animal model for schizophrenia
Assay type: in vivo
Details: 30 min prior to testing, n=12
Method: Some anti-epileptic drugs have proven pre-clinical and/or clinical efficacy as add-on therapy for schizophrenia. SPM 927 was tested in a simple animal model with predictive validity for schizophrenia (i.e. prepulse inhibition (PPI) of the acoustic startle reflex). SPM 927 was tested alone and in combination with the atypical antipsychotic drug clozapine.
The acoustic startle is an unconditioned reflex response to an external auditory stimulation. PPI refers to the reduction in the startle response caused by the presentation of a low-intensity auditory stimulus prior to the startle stimulus. The PPI paradigm is the choice for the study of schizophrenia and antipsychotic action due to the similarities between the results from human and rodent studies. Antipsychotic drugs, such as clozapine, result in a dose-dependent increase in PPI in mice. Thus, an increase of PPI in normal mice may be indicative of antipsychotic efficacy.
C57BL/6J mice obtained from the Jackson Laboratory, Bar Harbor, Maine were received at the age of 6 weeks and were assigned unique identification numbers (tail marked). Animals were housed 4 per cage in polycarbonate cages with filter tops and acclimated for 7 days. All animals were examined, handled, and weighed prior to initiation of the study to assure adequate health and suitability and to minimize non-specific stress associated with manipulation.
During the course of the study, 12/12 light/dark cycles and a room temperature of 20 to 23°C were maintained with a relative humidity maintained around 50%. Chow and water were provided ad libitum for the duration of the study. Each mouse was randomly assigned across the treatment groups and balanced by cage numbers. The test was performed during the animal's light cycle phase. Twelve animals were used in each treatment group.
SPM 927 was dissolved in Saline (0.9% NaCl in sterile H2O). Clozapine was dissolved in 1 % Tween 80 in sterile H2O at a final pH of 6.0. All compounds were administered intraperitoneal (ip) (volume injection: 10 ml/kg). SPM 927 was administered at doses of 1, 10 and 30 mg/kg and Clozapine at a dose of 3 mg/kg. Doses are expressed as mg of salt. Control mice were administered saline (vehicle 1, VEH 1) or 1% Tween 80 (vehicle 2, VEH 2) at a pH of 6.0. The drug treatments were balanced across days and the animals only used once. All tests were conducted blind. All compounds were administered 30 mins prior to testing.
Animals were placed in the PPI chambers (Med Associates) for a 5 min session of white noise (70 dB) habituation. After the acclimation period the test session was automatically started. The session started with an habituation block of 6 presentations of the startle stimulus alone, followed by 10 PPI blocks of 6 different types of trials. Trial types are: null (no stimuli), startle (120 dB), startle plus prepulse (4, 8 and 12 dB over background noise i.e. 74, 78 or 82 dB) and prepulse alone (82 dB). Trial types were presented at random within each block. Each trial started with a 50 ms null period during which baseline movements are recorded. There was a subsequent 20 ms period during which prepulse stimuli were presented and responses to the prepulse measured. After further 100 ms the startle stimuli were presented for 40 ms and responses recorded for 100 ms from startle onset. Responses were sampled every ms. The inter-trial interval was variable with an average of 15 s (range from 10 to 20 s). In startle alone trials the basic auditory startle is measured and in prepulse plus startle trials the amount of inhibition of the normal startle is determined and expressed as a percentage of the basic startle response (from startle alone trials), excluding the startle response of the first habituation block. Eight animals were tested at one time.
Twelve animals were tested in each group. […]

Row | Structure (SMILES) | Mean PPI (VEH 1 / clozapine 3 mg/kg ip, PPI expressed as percentage of basic startle response) | Mean PPI (SPM 927 3 mg/kg ip / VEH 2 (alone)) | Mean PPI (SPM 927 3 mg/kg ip in combination with clozapine 3 mg/kg ip) | Mean PPI (SPM 927 10 mg/kg ip / VEH 2 (alone)) | Mean PPI (SPM 927 10 mg/kg ip in combination with clozapine 3 mg/kg ip) | Mean PPI (SPM 927 30 mg/kg ip / VEH 2 (alone)) | Mean PPI (SPM 927 30 mg/kg ip in combination with clozapine 3 mg/kg ip)
1 | CN1CCN(C2=Nc3cc(Cl)ccc3Nc3ccccc32)CC1 [CLOZ, clozapine, reference compound] | 45±2 |  |  |  |  |  | 
2 | COC[C@@H](NC(C)=O)C(=O)NCc1ccccc1 [SPM 927, (R)-2-acetamide-N-benzyl-3-methoxypropionamide] |  | 29±3 | 43±2 | 34±3 | 45±2 | 27±2 | 57±5
